Test results: patent publication US6291496A, “Treating cancers associated with overexpression of class I family of receptor tyrosine kinases” (priority 1999, dated 2001)
In brackets after ≈: the same amount, converted by molar mass.

Legend:
[1] = tested on: HER-2/neu in 184B5/HER cells; assay: immunoblot for HER-2/neu in 184B5/HER cells; type: cell-based, human; conditions: 25 μM ciglitazone or 20 μM 15-d-PGJ2, 24 hours
From the text: The 184B5/HER cell line was obtained from a collaborator and was derived by stably transfecting 184B5 cells with a mutationally activated HER-2/neu oncogene; these cells form rapidly growing tumors when injected into athymic nude mice. The 184B5/HER cell line is described in Pierce, J. H., et al., Oncogene 6, 1189-1194 (1991). The BT-474 cell line is a human breast cancer adenocarcinoma cell line which overexpresses HER-2/neu, and was obtained from the American Type Culture Collection (Manassas, Va.) and bears accession number ATCC HBT-20.
184B5/HER cells were maintained in MEM-KBM mixed in a ratio of 1:1 (basal medium) containing epidermal growth factor (10 ng/ml), hydrocortisone (0.5 μg/ml), transferrin (10 μg/ml), gentamicin (5 μg/ml) and insulin (10 μg/ml) (growth medium). […] cells were grown to 60% confluence, trypsinized with 0.05% trypsin-2 mM ethylenediaminotetraacetic acid, and plated for experimental use. […]
184B5/HER cells were treated with vehicle (0.01% dimethylsulfoxide), 25 μM ciglitazone (Biomol, Plymouth Meeting, Pennsylvania) or 20 μM 15-d-PGJ2 (Biomol, Plymouth Meeting, Pennsylvania) for 24 hours. […] The protein concentration of the supernatant was measured by the method of Lowry, O. H., et al, J. Biol. Chem. 193, 265-275 (1951). […]

[2] = tested on: HER-2/neu mRNA; assay: Northern blotting for HER-2/neu mRNA in 184B5/HER cells; type: cell-based, human; conditions: 25 μM ciglitazone or 20 μM 15-d-PGJ2
Procedure: Northern blotting was performed to evaluate whether PPARγ ligands decrease levels of HER-2/neu mRNA. 184B5/HER cells were treated with vehicle (0.01% dimethyl sulfoxide), 25 μM ciglitazone or 20 μM 15-d-PGJ2. Total cellular RNA was isolated from cell monolayers using an RNA isolation kit from Qiagen Inc. 10 μg of RNA was added to each lane. The 10 μg of total cellular RNA per lane were electrophoresed in a formaldehyde-containing 1.2% agarose gel and transferred to nylon-supported membranes. The blot was hybridized with probes that recognized HER-2/neu mRNA (Santa Cruz Biotechnology, Inc., Santa Cruz, Calif.) and 18S rRNA cDNA (Ambion, Inc., Austin, Tex.).

[3] = tested on: HER-2/neu promoter; assay: transient transfection assay, human HER-2/neu promoter construct ligated to luciferase, 184B5/HER cells; type: cell-based; conditions: 0-25 μM, 24 hours, FIG. 1
Procedure: To determine whether PPARγ ligands inhibit HER-2/neu promoter activity, a transient transfection assay was performed. 184B5/HER cells were transfected with 1.8 μg of a human HER-21neu promoter construct ligated to luciferase (-1571/--24) and 0.2 μg pSVβgal (Promega Corp., Madison Wis.). The HER-2/neu promoter (-1571/--24) is described in Hudson, L. G. et al, J. Biol. Chem. 265, 4389-4393 (3/90), the whole of which is incorporated herein by reference. The promoter constructs are described in Hudson, L. G., et al, Cell 62, 1165-1175(1990). 184B5/HER cells were seeded at a density of5×10^4 cells well in 6-well dishes and grown to 50-60% confluence. For each well, 2 μg of […] DNA were introduced into cells using 8 μg of LIPOFECTAMINE (Life Technologies, Inc., Grand Island, N.Y.) as per the manufacturer's instructions. Following transfection, the cells were treated with ciglitazone (0, 5, 10, 15, 20 and 25 μM) or 15d-PGJ2 (0, 5, 10, 15, 20 and 25 μM) for 24 hours.
The activities of luciferase and β-galactosidase were measured in cellular extract as described in Mestre, J. R. et al, Cancer Res. 57, 1081-1085 (1997).

[4] = tested on: EGFR in 184B5 mammary epithelial cells; assay: immunoblot for EGFR in 184B5 cells; type: cell-based, human; conditions: ciglitazone 5-30 μM or 15-d-PGJ2 5, 10 μM, 24 hours
Procedure: The cells used were 184B5 cells. The 184B5 cell line was obtained from a collaborator and is an immortalized but non-tumorigenic human breast epithelial cell line that was established from a reduction mammaplasty and is described in Stampler, M. R, et al, Proc. Natl. Acad. Sci. USA 82, 2394-2398 (1985).
184B5 cells were maintained in MEM-KBM mixed in a ratio of 1:1 (basal medium) containing epidermal growth factor (10 ng/ml), hydrocortisone (0.5 μg/ml), transferrin (10 μg/ml), gentamicin (5 μg/ml), and insulin (10 μg/ml) (growth medium). 184B5 cells were grown to 60% confluence, trypsinized with 0.05% trypsin-2 mM ethylenediaminotetraacetic acid and plated for experimental use.
184B5 cells were treated with vehicle (0.01% dimethyl sulfoxide), ciglitazone (5, 10, 20, 30 μM) or 15-d-PGJ2 (5, 10 μM) for 24 hours. Cell lysates were prepared in RIPA buffer. Lysates were sonicated for 20 seconds on ice and centrifuged at 10,000×g for 10 minutes to sediment the particulate material. The protein concentration of the supernatant was measured by the method of Lowry,. O. H., et al, J. Biol. Chem. 193, 265-275 (1951). Cellular lysate protein (100 μg/lane) was loaded onto a 10% SDS-polyacrylamide gel, electrophoresed and subsequently transferred onto a nitrocellulose membrane(Schleicher & Schuell Keene, N. H.). […]

[5] = tested on: EGFR promoter; assay: transient transfection assay, human EGFR promoter construct ligated to luciferase, 184B5 cells; type: cell-based; conditions: 0-25 μM, 24 hours, FIG. 2
Procedure: To determine whether PPARγ ligands inhibit EGFR promoter activity, a transient transfection assay was performed, 184B5 cells were transfected with 1.8 μg of a human EGFR promoter construct ligated luciferase (-1100/-19) and 0.2 μg pSVβgal (Promega Corp., Madison, Wis.). The EGFR promoter is described in Hudson, L. G., et al, Cell 62, 1165-1175 (1990), the whole of which is incorporated herein by reference. 184B5 cells were seeded at a density of 5×10^4 cells/well in 6-well dishes and grown to 50-60% confluence. For each well 2 μg of […] DNA were introduced into cells using 8 μg of LIPOFECTAMINE (Life Technologies, Inc., Grand Island, N.Y.) as per the manufacturers instructions. Following transfection, the cells were treated with ciglitazone (0, 5, 10, 15, 20 and 25 μM) or 15-d-PGJ2 (0, 5, 10, 15, 20, and 25 μM) for 24 hours. The activities of luciferase and β-galactosidase were measured in cellular extract as described in Mestre, J. R, et al, Cancer Res. 57, 1081-1085 (1997). The results are shown in FIG. 2 where luciferase activity represents data that have been normalized to β-galactosidase activity (columns, means; bars, S. D., n=6; * means p<0.01 compared to control).

[6] = target: human PPARγ binding domain; conditions: scintillation proximity assay, radioligand [3H]BRL 49653; values reported in Henke et al, Collins et al, Cobb et al; cited from earlier work
[7] = tested on: HER-2/neu positive breast cancer; assay: Example I: adjuvant therapy after mastectomy; type: in vivo, human; conditions: patient, oral 5 mg/kg twice per day for five years after mastectomy
[8] = tested on: HER-2/neu positive breast cancer; assay: Example II: adjuvant therapy with PPARγ ligand and HERCEPTIN; type: in vivo, human; conditions: patient, oral 5 mg/kg twice daily for one year, with HERCEPTIN 250 mg IV loading then 10 weekly doses of 125 mg
[9] = tested on: HER-2/neu positive breast cancer metastasized to lung and liver; assay: Example III: breast cancer metastasized to lung and liver; type: in vivo, human; conditions: patient, oral 5 mg/kg twice daily
Procedure: After three months, the PPARγ ligand administration is continued in combination regimen with Taxol® at a dose of 175 mg/m^2 administered intravenously every three weeks.

[10] = tested on: HER-2/neu positive breast cancer metastasized to bone; assay: Example IV: breast cancer metastasized to bone; type: in vivo, human; conditions: patient after failure of prior chemotherapy, oral 5 mg/kg twice daily plus HERCEPTIN
Procedure: After 90 days, oral cyclophosphamide at a dose of 3 mg/kg/day and doxorubicin administered intravenously weekly at a dose of 20 mg/m^2, are added to the drug regimen.

[11] = tested on: HER-2/neu positive colon cancer; assay: Example V: after resection of colon cancer; type: in vivo, human; conditions: patient, oral 5 mg/kg twice daily for five years after resection
[12] = tested on: non-small cell lung carcinoma where EGFR is overexpressed; assay: Example VI: non-small cell lung carcinoma metastasized to liver; type: in vivo, human; conditions: patient, oral 5 mg/kg twice daily
Procedure: After one month, PPARγ ligand administration is continued in combination with infusion of cisplatin every four weeks at 60 mg/m^2 for 12 more weeks.

[13] = tested on: head and neck carcinoma where EGFR is overexpressed; assay: Example VII: head and neck carcinoma; type: in vivo, human; conditions: after the 12 weeks of CETUXIMAB and cisplatin, oral 5 mg/kg twice daily for 12 weeks
Procedure: Concurrently cisplatin is infused every four weeks at 60 mg/m^2.

[14] = tested on: Stage IV EGFR positive breast cancer tumors; assay: Example VIII: breast cancer with Stage IV EGFR positive tumors; type: in vivo, human; conditions: oral 5 mg/kg twice daily in combination with CETUXIMAB and Taxol
[15] = tested on: EGFR positive breast cancer; assay: Example IX: adjuvant therapy after mastectomy; type: in vivo, human; conditions: patient, oral 5 mg/kg twice daily for five years after mastectomy
[16] = physchem; conditions: ph 7.4 buffer, pH 7.4, aqueous buffer

CCCCC/C=C/C=C1/C(=O)C=C[C@@H]1C/C=C\CCCC(=O)O [15-d-PGJ2, 15-deoxy-Δ12, 14-prostaglandin J2]
amount of HER-2/neu (immunoblot) [1]: decreased the amount of HER-2/neu | amounts of HER-2/neu mRNA (Northern blot) [2]: decrease amounts of HER-2/neu mRNA | HER-2/neu promoter activity (luciferase normalized to β-galactosidase) [3]: inhibited HER-2 neu promoter activity in a dose-dependent fashion | amounts of EGFR (immunoblot) [4]: decreased amounts of EGFR | EGFR promoter activity (luciferase normalized to β-galactosidase) [5]: inhibited EGFR promoter activity in a dose-dependent fashion

CCCOC(=O)c1ccccc1N[C@@H](Cc1ccc(OCCc2nc(-c3ccccc3)oc2C)cc1)C(=O)O [#65]
pKi in binding assay using the human PPARγ binding domain [6]: 8.62±0.03

CN(CCOc1ccc(CC2SC(=O)NC2=O)cc1)c1ccccn1 (stereo not drawn) [rosiglitazone]
recurrence of breast cancer [7]: Recurrence of breast cancer does not occur | recurrence of breast cancer [8]: Recurrence of breast cancer does not occur | tumor burden [9]: reduced tumor burden | tumor burden [10]: reduced tumor burden | recurrence of colon cancer [11]: Recurrence of colon cancer does not occur | tumor burden [12]: reduced tumor burden | tumor burden [13]: further reduced tumor burden | tumor burden [14]: reduced tumor burden | recurrence of breast cancer [15]: Recurrence of breast cancer dose not occur | pKi in binding assay using the human PPARγ binding domain [6]: 7.33±0.02

COC(=O)c1ccccc1N[C@@H](Cc1ccc(OCCc2nc(-c3ccccc3)oc2C)cc1)C(=O)O [GW7845, (S)-2-(1-carboxy-2-{4-[2-(5-methyl-2-phenyloxazol-4-yl)ethoxy]phenyl}ethylamino)benzoic acid methyl ester]
recurrence of breast cancer [7]: recurrence of breast cancer does not occur | recurrence of breast cancer [8]: Recurrence of breast cancer does not occur | tumor burden [10]: reduced tumor burden | tumor burden [12]: reduced tumor burden | tumor burden [13]: further reduced tumor burden | solubility [16]: 300 µg/mL (≈ 599 µM)

CCOC(=O)c1ccccc1N[C@@H](Cc1ccc(OCCc2nc(-c3ccccc3)oc2C)cc1)C(=O)O [#64]
pKi in binding assay using the human PPARγ binding domain [6]: 8.52±0.03

Cc1oc(-c2ccccc2)nc1CCOc1ccc(C[C@H](Nc2ccccc2C(=O)OC(C)C)C(=O)O)cc1 [#66]
pKi in binding assay using the human PPARγ binding domain [6]: 9.01±0.00

CN(CCOc1ccc(C[C@H](Nc2ccccc2C(=O)c2ccccc2)C(=O)O)cc1)c1nc2ccccc2o1 [structure (II), 3-{4-[2-benzoxazol-2-ylmethylamino)ethoxy](phenyl}-(2S)-((2-benzoylphenyl)amino)propionic acid]
recurrence of breast cancer [7]: recurrence of breast cancer does not occur | recurrence of breast cancer [8]: Recurrence of breast cancer does not occur | tumor burden [9]: reduced tumor burden | tumor burden [10]: reduced tumor burden | recurrence of colon cancer [11]: Recurrence of colon cancer does not occur | tumor burden [12]: reduced tumor burden | tumor burden [13]: further reduced tumor burden | recurrence of breast cancer [15]: Recurrence of breast cancer dose not occur | pKi in binding assay using the human PPARγ binding domain [6]: 8.83±0.05
